Data reported in US20150087627A1, “COMBINATION OF KINASE INHIBITORS AND USES THEREOF” (Intellikine LLC, priority 2011, published 2015).

Assays:
Type in all cases: biochemical
[1] = molecular target: T1, PI3K δ (Homo sapiens, UniProt O00329); assay: PI 3-Kinase (human) HTRF assay, PI3K δ; settings: read-out: PI3K δ IC50
T1 construct: purchased Upstate / Millipore Corporation

[2] = molecular target: T2, PI3K α (p110α/p85α) (Homo sapiens, UniProt P42336); assay: PI 3-Kinase (human) HTRF assay, PI3K α; settings: read-out: PI3K α IC50
T2 construct: purchased Upstate / Millipore Corporation

[3] = molecular target: T3, PI3K β (p110β/p85α) (Homo sapiens, UniProt P42338); assay: PI 3-Kinase (human) HTRF assay, PI3K β; settings: read-out: PI3K β IC50
T3 construct: purchased Upstate / Millipore Corporation

[4] = molecular target: T4, PI3K γ (p110γ) (Homo sapiens, UniProt P48736); assay: PI 3-Kinase (human) HTRF assay, PI3K γ; settings: read-out: PI3K γ IC50
T4 construct: purchased Upstate / Millipore Corporation
T4 sequence (P48736 whole entry): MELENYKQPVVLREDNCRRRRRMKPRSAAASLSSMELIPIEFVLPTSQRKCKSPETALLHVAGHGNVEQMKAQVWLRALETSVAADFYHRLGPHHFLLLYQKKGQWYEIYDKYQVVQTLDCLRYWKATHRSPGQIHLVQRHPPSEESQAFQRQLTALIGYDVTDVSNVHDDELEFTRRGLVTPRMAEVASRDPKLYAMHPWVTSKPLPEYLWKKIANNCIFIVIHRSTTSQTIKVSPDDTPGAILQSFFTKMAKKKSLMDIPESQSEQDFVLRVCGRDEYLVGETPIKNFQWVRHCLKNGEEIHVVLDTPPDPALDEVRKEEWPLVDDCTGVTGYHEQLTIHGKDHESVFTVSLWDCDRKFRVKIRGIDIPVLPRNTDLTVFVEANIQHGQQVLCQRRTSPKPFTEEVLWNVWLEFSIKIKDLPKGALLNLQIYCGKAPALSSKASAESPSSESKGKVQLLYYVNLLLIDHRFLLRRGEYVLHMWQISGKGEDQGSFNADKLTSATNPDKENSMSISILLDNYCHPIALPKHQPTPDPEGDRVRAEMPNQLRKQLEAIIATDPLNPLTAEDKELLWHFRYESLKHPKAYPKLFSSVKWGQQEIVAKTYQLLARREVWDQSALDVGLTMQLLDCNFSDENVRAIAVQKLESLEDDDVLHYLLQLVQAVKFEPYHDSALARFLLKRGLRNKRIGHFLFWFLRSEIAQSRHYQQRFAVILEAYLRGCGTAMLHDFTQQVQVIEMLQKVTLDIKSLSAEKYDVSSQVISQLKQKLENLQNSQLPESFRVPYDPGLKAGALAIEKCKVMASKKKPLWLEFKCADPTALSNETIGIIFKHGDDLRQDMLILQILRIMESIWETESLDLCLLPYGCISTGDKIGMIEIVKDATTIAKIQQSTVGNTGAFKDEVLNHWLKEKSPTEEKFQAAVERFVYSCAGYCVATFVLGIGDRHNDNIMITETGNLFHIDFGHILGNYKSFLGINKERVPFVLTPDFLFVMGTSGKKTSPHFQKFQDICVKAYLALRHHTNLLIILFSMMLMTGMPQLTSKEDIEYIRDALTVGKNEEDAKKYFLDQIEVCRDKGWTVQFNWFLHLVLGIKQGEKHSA

T3 sequence (P42338 whole entry): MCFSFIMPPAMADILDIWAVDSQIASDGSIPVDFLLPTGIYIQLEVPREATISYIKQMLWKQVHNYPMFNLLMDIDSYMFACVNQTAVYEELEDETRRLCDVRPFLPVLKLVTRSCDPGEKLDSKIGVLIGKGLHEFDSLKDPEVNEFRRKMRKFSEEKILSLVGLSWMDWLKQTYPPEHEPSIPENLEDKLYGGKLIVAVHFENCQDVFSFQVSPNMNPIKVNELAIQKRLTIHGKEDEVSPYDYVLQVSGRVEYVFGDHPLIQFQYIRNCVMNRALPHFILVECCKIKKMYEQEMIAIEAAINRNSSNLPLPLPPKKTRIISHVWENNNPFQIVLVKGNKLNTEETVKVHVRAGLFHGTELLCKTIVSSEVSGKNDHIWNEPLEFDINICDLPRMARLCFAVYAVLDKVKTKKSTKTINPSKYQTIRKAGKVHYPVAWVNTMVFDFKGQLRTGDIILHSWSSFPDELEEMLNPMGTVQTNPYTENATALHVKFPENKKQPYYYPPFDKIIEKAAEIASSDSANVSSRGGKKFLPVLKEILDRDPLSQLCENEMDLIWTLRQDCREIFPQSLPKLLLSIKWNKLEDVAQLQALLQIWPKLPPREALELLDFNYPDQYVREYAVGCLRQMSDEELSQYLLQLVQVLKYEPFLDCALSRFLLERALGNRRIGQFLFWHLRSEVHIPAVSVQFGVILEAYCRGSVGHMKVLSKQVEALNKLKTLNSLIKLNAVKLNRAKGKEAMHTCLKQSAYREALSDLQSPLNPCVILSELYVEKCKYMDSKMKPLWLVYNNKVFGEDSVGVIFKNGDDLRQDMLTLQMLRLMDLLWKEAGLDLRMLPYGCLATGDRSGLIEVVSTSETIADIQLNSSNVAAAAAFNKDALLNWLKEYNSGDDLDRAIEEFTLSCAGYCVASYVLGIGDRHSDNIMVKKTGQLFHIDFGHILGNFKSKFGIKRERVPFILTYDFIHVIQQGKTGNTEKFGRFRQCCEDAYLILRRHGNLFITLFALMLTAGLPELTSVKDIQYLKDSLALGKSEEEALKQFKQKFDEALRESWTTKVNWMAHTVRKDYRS
T3 sequence (P27986 whole entry partner): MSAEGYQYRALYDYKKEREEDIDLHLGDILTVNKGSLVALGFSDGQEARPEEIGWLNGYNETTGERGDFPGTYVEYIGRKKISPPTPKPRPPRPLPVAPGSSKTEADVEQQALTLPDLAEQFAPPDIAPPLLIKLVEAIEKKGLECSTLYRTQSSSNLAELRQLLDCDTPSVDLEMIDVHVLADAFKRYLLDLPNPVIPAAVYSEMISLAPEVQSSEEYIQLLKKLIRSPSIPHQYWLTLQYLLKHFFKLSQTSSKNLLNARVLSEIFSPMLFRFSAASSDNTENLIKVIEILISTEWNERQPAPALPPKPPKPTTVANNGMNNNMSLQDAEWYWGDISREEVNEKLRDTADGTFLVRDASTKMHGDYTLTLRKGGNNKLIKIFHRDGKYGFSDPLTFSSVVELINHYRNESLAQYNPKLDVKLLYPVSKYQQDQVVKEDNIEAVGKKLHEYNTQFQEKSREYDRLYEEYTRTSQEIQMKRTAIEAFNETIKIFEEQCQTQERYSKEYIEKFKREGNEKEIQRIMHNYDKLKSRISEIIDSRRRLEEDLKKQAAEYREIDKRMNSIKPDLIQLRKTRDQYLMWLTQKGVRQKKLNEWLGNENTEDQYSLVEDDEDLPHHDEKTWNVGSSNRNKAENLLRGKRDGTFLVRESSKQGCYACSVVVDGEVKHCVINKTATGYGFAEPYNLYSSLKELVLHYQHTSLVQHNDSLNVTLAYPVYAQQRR
T1 sequence (O00329 whole entry): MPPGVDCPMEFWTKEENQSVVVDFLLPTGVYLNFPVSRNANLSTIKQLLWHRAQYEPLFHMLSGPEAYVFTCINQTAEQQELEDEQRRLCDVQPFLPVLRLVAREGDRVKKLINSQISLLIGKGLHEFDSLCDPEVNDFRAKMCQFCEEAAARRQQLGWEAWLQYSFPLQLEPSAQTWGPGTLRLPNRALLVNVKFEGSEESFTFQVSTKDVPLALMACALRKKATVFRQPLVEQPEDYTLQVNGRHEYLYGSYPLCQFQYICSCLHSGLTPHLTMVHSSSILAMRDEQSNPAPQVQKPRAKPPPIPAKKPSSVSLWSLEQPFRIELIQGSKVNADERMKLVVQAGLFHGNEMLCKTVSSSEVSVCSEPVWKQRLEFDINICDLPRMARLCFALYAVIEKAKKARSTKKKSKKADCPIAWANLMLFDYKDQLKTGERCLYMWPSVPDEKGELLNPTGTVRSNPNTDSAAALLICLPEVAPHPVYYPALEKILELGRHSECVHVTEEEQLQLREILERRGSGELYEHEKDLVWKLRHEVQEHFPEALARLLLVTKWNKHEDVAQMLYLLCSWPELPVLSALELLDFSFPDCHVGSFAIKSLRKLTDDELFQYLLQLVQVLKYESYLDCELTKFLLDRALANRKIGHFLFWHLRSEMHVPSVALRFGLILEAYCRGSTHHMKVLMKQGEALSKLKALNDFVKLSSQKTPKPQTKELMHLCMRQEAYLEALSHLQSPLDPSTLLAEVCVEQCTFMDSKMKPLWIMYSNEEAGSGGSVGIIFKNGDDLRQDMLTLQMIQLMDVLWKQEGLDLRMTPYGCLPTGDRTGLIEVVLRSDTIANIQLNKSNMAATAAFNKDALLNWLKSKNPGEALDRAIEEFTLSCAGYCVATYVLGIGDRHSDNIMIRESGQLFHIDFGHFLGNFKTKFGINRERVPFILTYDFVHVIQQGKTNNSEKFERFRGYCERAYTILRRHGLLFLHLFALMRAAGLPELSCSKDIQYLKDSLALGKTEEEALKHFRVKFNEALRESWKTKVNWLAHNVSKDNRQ
T1 sequence (P27986 whole entry partner): as the sequence (P27986 whole entry partner) above
T2 sequence (P42336 whole entry): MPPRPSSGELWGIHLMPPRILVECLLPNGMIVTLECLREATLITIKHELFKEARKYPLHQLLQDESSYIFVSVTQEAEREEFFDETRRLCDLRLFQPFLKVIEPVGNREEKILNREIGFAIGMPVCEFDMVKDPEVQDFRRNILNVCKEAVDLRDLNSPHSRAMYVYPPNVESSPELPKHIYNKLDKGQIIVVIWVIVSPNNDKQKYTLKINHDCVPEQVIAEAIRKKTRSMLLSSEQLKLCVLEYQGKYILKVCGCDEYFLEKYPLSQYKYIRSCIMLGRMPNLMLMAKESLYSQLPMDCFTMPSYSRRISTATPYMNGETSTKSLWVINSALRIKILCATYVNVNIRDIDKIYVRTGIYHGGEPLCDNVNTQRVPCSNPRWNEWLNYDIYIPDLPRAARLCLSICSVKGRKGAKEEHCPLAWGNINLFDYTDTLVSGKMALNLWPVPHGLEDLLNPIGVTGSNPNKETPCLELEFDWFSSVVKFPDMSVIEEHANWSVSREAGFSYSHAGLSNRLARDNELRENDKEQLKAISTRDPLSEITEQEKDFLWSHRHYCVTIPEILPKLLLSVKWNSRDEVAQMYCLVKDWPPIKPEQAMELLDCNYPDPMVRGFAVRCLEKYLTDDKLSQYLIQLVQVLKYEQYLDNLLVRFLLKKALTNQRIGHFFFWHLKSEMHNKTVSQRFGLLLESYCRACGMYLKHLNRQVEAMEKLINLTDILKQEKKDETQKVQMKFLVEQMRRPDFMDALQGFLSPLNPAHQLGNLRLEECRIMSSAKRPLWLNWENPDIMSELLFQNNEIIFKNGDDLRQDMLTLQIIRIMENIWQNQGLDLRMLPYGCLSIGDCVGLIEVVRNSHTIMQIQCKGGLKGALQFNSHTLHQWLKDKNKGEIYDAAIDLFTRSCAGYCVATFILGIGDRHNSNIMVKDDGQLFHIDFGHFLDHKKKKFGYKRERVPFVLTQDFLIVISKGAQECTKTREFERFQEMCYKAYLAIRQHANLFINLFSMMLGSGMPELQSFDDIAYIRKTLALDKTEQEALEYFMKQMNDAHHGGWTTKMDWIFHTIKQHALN
T2 sequence (P27986 whole entry partner): as the sequence (P27986 whole entry partner) above

IC50 [1]	IC50 [2]	IC50 [3]	IC50 [4]	SMILES
> 10 µM	< 0.1 µM	> 10 µM	< 0.1 µM	Nc1nc2cc(-c3ccc4ncc(N5CCN(CC(F)(F)F)CC5)nc4c3)ccc2o1 [Compound 395]
> 10 µM	< 0.1 µM	< 0.1 µM	< 10 µM	C[C@H]1CN(c2cnc3ccc(-c4ccc5oc(N)nc5c4)cc3c2)CCN1 [Compound 396]
< 1 µM	< 0.1 µM	< 1 µM	< 0.1 µM	Cc1cc(-c2ccc3oc(N)nc3c2)cc2c(-c3ccncc3)cnn12 [Compound 397]
< 10 µM	< 1 µM	< 10 µM	< 10 µM	Nc1nc2cc(-c3ccn4ncc(C(=O)N5CCC(N6CCOCC6)CC5)c4c3)ccc2o1 [Compound 398]
> 10 µM	> 10 µM	> 10 µM	> 10 µM	C[C@H]1CN(c2cnc3scc(-c4ccc5oc(N)nc5c4)c3c2)CCN1 [Compound 399]
> 10 µM	> 10 µM	> 10 µM	< 10 µM	CC(=O)Nc1cc2ccc(-c3cc(F)c4oc(N)nc4c3)cn2n1 [Compound 401]
> 10 µM	< 10 µM	> 10 µM	> 10 µM	C[C@H]1CN(c2nc3cc(-c4ccc5oc(N)nc5c4)ccc3nc2N)CCN1 [Compound 403]
> 10 µM	> 10 µM	> 10 µM	> 10 µM	CN1CCC(Nc2nc3cc(-c4ccc5ncc(C(=O)N6CCOCC6)n5c4)ccc3o2)CC1 [Compound 408]
> 10 µM	< 10 µM	> 10 µM	> 10 µM	O=C(c1cnc2ccc(-c3ccc4oc(NC5CC5)nc4c3)cn12)N1CCOCC1 [Compound 409]
> 10 µM	< 10 µM	> 10 µM	> 10 µM	Nc1nc2nc(-c3ccc4ncc(C(=O)N5CCOCC5)n4c3)ccc2o1 [Compound 412]
< 10 µM	< 0.1 µM	< 10 µM	< 1 µM	COc1ncc(-c2ccc3ncc(C(=O)N4CCOCC4)n3c2)cc1NS(C)(=O)=O [Compound 416]
< 1 µM	< 0.1 µM	> 10 µM	< 1 µM	COc1ncc(-c2ccc3ncc(C(=O)N4CCOCC4)n3c2)cc1NS(=O)(=O)c1ccccc1 [Compound 420]
< 1 µM	< 0.1 µM	< 10 µM	< 0.1 µM	COc1ncc(-c2ccc3ncc(C(=O)N4CCOCC4)n3c2)cc1NS(=O)(=O)c1ccccc1F [Compound 422]
< 10 µM	< 1 µM	> 10 µM	< 1 µM	O=C(c1cnc2ccc(-c3cncc(NS(=O)(=O)c4ccccc4)c3)cn12)N1CCOCC1 [Compound 424]
< 1 µM	< 0.1 µM	> 10 µM	< 0.1 µM	O=C(c1cnc2ccc(-c3cncc(NS(=O)(=O)c4ccc(F)cc4F)c3)cn12)N1CCOCC1 [Compound 425]

SMILES	IC50 [1]	IC50 [2]	IC50 [3]	IC50 [4]
O=C(c1cnc2ccc(-c3ccc4oc(Nc5ccccc5)nc4c3)cn12)N1CCOCC1 [Compound 407]	> 10 µM	> 10 µM	< 10 µM	> 10 µM
Nc1ncc(-c2ccc3ncc(C(=O)N4CCOCC4)n3c2)cc1C(F)(F)F [Compound 410]	> 10 µM	< 10 µM	> 10 µM	> 10 µM
CC(Oc1nc(-c2ccc3ncc(C(=O)N4CCOCC4)n3c2)cnc1N)C(F)(F)F (centres unmarked) [Compound 411]	< 10 µM	< 0.1 µM	< 10 µM	< 1 µM
Nc1nc2cc(-c3ccc4ncc(N5CCNC(C(F)F)C5)nc4c3)ccc2o1 (centres unmarked) [Compound 413]	< 10 µM	< 0.1 µM	< 1 µM	< 1 µM
COc1ncc(-c2ccc3ncc(C(=O)N4CCOCC4)n3c2)cc1NS(=O)(=O)c1ccc(F)cc1 [Compound 421]	< 0.1 µM	< 0.1 µM	< 1 µM	< 0.1 µM
